Source: ChEMBL document CHEMBL4428125, “8-Substituted 1,3-dimethyltetrahydropyrazino[2,1-f]purinediones: Water-soluble adenosine receptor antagonists and monoamine oxidase B inhibitors” (Bioorg Med Chem, 2016)

Columns and labels:
[1] = molecular target: T1, Amine oxidase [flavin-containing] B (Homo sapiens, UniProt P27338); assay: Inhibition of recombinant human MAO-B expressed in baculovirus infected BTI insect cells preincubated for 30 mins followed by addition of p-tyramine as substrate measured over 45 mins by Amplex Red MAO assay
T1 sequence (P27338 whole entry): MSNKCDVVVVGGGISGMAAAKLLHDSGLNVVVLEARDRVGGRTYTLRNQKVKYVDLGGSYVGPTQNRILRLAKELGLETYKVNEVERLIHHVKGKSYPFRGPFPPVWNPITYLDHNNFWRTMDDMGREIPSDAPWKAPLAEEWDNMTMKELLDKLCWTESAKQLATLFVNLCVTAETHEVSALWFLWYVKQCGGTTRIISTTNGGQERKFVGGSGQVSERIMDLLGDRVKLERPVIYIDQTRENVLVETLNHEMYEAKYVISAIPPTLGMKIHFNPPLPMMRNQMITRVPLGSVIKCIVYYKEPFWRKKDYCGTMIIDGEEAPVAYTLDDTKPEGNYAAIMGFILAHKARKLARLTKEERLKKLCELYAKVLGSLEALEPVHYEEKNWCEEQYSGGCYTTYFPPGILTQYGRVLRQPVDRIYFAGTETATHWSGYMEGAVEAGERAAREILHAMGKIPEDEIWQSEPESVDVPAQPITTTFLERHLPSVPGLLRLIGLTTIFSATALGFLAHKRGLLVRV

Adenosine receptor A2b = molecular target: T2, Adenosine receptor A2b (Homo sapiens, UniProt P29275); assay: Displacement of [3H]PSB-603 from human A2B receptor expressed in CHO cell membrane; format: cell membranes
T2 sequence (P29275 whole entry): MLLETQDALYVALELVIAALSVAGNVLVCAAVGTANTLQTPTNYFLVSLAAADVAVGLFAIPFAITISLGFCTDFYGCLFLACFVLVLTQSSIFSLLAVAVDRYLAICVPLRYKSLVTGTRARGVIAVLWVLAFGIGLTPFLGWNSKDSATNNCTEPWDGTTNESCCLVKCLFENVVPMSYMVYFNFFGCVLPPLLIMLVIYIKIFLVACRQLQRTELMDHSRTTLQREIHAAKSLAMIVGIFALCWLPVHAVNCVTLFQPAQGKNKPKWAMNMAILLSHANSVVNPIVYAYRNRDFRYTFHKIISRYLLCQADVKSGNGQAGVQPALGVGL

Adenosine receptor A3 = molecular target: T3, Adenosine receptor A3 (Homo sapiens, UniProt P0DMS8); assay: Displacement of [3H]PSB-11 from human A3 receptor expressed in CHO cell membrane by liquid scintillation counting method relative to control; format: cell membranes
T3 sequence (P0DMS8 whole entry): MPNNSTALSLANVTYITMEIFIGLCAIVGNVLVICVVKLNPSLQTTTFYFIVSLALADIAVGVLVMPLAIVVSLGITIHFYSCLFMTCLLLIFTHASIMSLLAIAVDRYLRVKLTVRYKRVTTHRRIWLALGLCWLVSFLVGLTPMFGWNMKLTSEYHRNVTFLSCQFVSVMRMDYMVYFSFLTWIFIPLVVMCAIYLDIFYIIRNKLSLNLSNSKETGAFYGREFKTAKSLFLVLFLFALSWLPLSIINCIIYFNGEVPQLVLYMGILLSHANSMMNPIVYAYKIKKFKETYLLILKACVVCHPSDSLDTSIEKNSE

Adenosine receptor A2a = Adenosine receptor A2a (Rattus norvegicus, UniProt P30543); assay: Displacement of [3H]MSX from A2A receptor in rat brain striatum membranes measured after 30 mins by liquid scintillation counting method; format: cell membranes
[2] = molecular target: T4, Adenosine receptor A1 (Rattus norvegicus) (UniProt P25099); assay: Displacement of [3H]CCPA from A1 receptor in rat brain cortex membranes at 1.5 uM by liquid scintillation counting method; format: cell membranes
T4 sequence (whole entry): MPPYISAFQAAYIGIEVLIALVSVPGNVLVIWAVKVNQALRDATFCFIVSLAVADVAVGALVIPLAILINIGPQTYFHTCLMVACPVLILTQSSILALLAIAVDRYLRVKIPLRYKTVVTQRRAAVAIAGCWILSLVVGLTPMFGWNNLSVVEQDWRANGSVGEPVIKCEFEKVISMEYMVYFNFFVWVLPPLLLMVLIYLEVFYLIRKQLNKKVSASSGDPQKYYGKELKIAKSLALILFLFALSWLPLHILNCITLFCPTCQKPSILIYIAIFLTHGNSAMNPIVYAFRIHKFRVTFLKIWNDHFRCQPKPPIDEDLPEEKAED

[3] = molecular target: T5, Amine oxidase [flavin-containing] A (Homo sapiens, UniProt P21397); assay: Inhibition of recombinant human MAO-A expressed in baculovirus infected BTI insect cells at 10 uM preincubated for 30 mins followed by addition of p-tyramine as substrate measured over 45 mins by Amplex Red MAO assay relative to control; settings: 0.75 h
T5 sequence (P21397 whole entry): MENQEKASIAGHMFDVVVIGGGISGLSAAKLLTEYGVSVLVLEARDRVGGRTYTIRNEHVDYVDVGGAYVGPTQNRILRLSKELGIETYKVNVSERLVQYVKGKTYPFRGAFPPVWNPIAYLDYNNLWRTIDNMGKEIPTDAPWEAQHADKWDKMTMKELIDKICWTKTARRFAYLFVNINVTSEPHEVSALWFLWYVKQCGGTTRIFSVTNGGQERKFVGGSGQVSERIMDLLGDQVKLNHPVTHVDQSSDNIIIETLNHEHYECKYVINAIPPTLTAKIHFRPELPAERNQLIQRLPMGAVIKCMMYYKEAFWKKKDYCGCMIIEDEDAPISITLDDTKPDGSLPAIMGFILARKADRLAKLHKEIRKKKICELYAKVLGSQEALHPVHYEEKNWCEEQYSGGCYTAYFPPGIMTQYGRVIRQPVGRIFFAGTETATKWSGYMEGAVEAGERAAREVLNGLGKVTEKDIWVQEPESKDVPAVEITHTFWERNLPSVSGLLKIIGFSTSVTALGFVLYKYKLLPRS

[4] = molecular target: T6, Adenosine receptor A2b (Homo sapiens) (UniProt P29275); assay: Displacement of [3H]PSB-603 from human A2B receptor expressed in CHO cell membrane at 1 uM relative to control; format: cell membranes
T6 sequence (whole entry): T2 sequence (P29275 whole entry)

[5] = molecular target: T5, Amine oxidase [flavin-containing] A; assay: Inhibition of recombinant human MAO-A expressed in baculovirus infected BTI insect cells preincubated for 30 mins followed by addition of p-tyramine as substrate measured over 45 mins by Amplex Red MAO assay
[6] = molecular target: T7, Adenosine receptor A3 (Homo sapiens) (UniProt P0DMS8); assay: Displacement of [3H]PSB-11 from human A3 receptor expressed in CHO cell membrane at 10 uM by liquid scintillation counting method relative to control relative to control; format: cell membranes
T7 sequence (whole entry): T3 sequence (P0DMS8 whole entry)

Adenosine receptor A1 = molecular target: T8, Adenosine receptor A1 (Rattus norvegicus, UniProt P25099); assay: Displacement of [3H]CCPA from A1 receptor in rat brain cortex membranes by liquid scintillation counting method; format: cell membranes
T8 sequence (P25099 whole entry): T4 sequence (whole entry)

[7] = molecular target: T1, Amine oxidase [flavin-containing] B; assay: Inhibition of recombinant human MAO-B expressed in baculovirus infected BTI insect cells at 10 uM preincubated for 30 mins followed by addition of p-tyramine as substrate measured over 45 mins by Amplex Red MAO assay relative to control; settings: 0.75 h

Sequence of Adenosine receptor A2a (P30543 whole entry): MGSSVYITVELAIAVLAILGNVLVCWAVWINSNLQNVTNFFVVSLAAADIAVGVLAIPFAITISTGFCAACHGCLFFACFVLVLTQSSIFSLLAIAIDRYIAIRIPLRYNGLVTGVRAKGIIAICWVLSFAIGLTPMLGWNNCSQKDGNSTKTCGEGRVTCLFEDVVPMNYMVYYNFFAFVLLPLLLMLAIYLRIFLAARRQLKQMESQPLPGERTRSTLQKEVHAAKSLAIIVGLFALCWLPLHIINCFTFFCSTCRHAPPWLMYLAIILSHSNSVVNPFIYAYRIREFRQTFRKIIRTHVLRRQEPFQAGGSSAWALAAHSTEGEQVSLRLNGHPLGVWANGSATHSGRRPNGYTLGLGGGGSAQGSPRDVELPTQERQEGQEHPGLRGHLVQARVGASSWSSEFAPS

Compound: Cn1c(=O)c2c(nc3n2CCN(c2cccc4ccccc24)C3)n(C)c1=O
- IC50 [1]: 828 nM
- Ki (Adenosine receptor A2b): > 1000 nM
- Ki (Adenosine receptor A3): > 10000 nM
- Ki (Adenosine receptor A2a): 2940 nM
- Activity [2]: 17%
- inhibition at 10 µM [3]: 16%
- Activity [4]: 10%
- IC50 [5]: > 10000 nM
- Activity [6]: 29%
- Ki (Adenosine receptor A1): > 1500 nM

Compound: Cn1c(=O)c2c(nc3n2CCN(CCc2cccc(Cl)c2)C3)n(C)c1=O
- Ki (Adenosine receptor A2b): > 1000 nM
- Ki (Adenosine receptor A3): > 10000 nM
- Ki (Adenosine receptor A2a): 1310 nM
- Activity [2]: 14%
- inhibition at 10 µM [3]: 13%
- Activity [4]: 21%
- IC50 [5]: > 10000 nM
- inhibition at 10 µM [7]: 61%
- Activity [6]: 10%
- Ki (Adenosine receptor A1): > 1500 nM

Compound: Cn1c(=O)c2c(nc3n2CCN(CCc2ccccc2Cl)C3)n(C)c1=O
- IC50 [1]: 723 nM
- Ki (Adenosine receptor A2b): > 1000 nM
- Ki (Adenosine receptor A3): > 10000 nM
- Ki (Adenosine receptor A2a): 2730 nM
- Activity [2]: 32%
- inhibition at 10 µM [3]: 11%
- Activity [4]: 13%
- IC50 [5]: > 10000 nM
- Activity [6]: 43%
- Ki (Adenosine receptor A1): > 1500 nM

Compound: Cn1c(=O)c2c(nc3n2CCN([C@@H]2CCc4ccccc42)C3)n(C)c1=O
- IC50 [1]: 2150 nM
- Ki (Adenosine receptor A2b): > 1000 nM
- Ki (Adenosine receptor A3): > 10000 nM
- Ki (Adenosine receptor A2a): 5080 nM
- Activity [2]: 28%
- Activity [4]: 8%
- Activity [6]: 38%
- Ki (Adenosine receptor A1): > 1500 nM

Compound: Cn1c(=O)c2c(nc3n2CCN(c2ccccc2)C3)n(C)c1=O
- Ki (Adenosine receptor A2b): > 1000 nM
- Ki (Adenosine receptor A3): > 10000 nM
- Ki (Adenosine receptor A2a): 3830 nM
- Activity [2]: 12%
- inhibition at 10 µM [3]: -1%
- Activity [4]: 8%
- IC50 [5]: > 10000 nM
- inhibition at 10 µM [7]: 61%
- Activity [6]: 32%
- Ki (Adenosine receptor A1): > 1500 nM

Compound: Cn1c(=O)c2c(nc3n2CCN(CCc2ccc(Cl)c(Cl)c2)C3)n(C)c1=O
- IC50 [1]: 802 nM
- Ki (Adenosine receptor A2b): > 1000 nM
- Ki (Adenosine receptor A3): 15000 nM
- Ki (Adenosine receptor A2a): 2850 nM
- Activity [2]: 35%
- inhibition at 10 µM [3]: 14%
- Activity [4]: 11%
- IC50 [5]: > 10000 nM
- Ki (Adenosine receptor A1): > 1500 nM

Compound: Cn1c(=O)c2c(nc3n2CCN(CCc2c(Cl)cccc2Cl)C3)n(C)c1=O
- IC50 [1]: 932 nM
- Ki (Adenosine receptor A2b): > 1000 nM
- Ki (Adenosine receptor A3): > 10000 nM
- Ki (Adenosine receptor A2a): 3050 nM
- Activity [2]: 34%
- Activity [4]: 22%
- Activity [6]: 10%
- Ki (Adenosine receptor A1): > 1500 nM

Compound: Cn1c(=O)c2c(nc3n2CCN(c2cccc(F)c2)C3)n(C)c1=O
- IC50 [1]: 1500 nM
- Ki (Adenosine receptor A2b): > 1000 nM
- Ki (Adenosine receptor A3): > 10000 nM
- Ki (Adenosine receptor A2a): 2920 nM
- Activity [2]: 20%
- inhibition at 10 µM [3]: 8%
- Activity [4]: 3%
- IC50 [5]: > 10000 nM
- Activity [6]: 18%
- Ki (Adenosine receptor A1): > 1500 nM

Compound: CC(CN1CCn2c(nc3c2c(=O)n(C)c(=O)n3C)C1)c1ccccc1 (stereo not drawn)
- IC50 [1]: > 10000 nM
- Ki (Adenosine receptor A2b): > 1000 nM
- Ki (Adenosine receptor A3): > 10000 nM
- Ki (Adenosine receptor A2a): 4520 nM
- Activity [2]: 27%
- inhibition at 10 µM [3]: 23%
- Activity [4]: 11%
- IC50 [5]: > 10000 nM
- inhibition at 10 µM [7]: 11%
- Activity [6]: 31%
- Ki (Adenosine receptor A1): > 1500 nM

Compound: Cn1c(=O)c2c(nc3n2CCN(CCc2cccc(C(F)(F)F)c2)C3)n(C)c1=O
- IC50 [1]: 10000 nM
- Ki (Adenosine receptor A2b): > 1000 nM
- Ki (Adenosine receptor A3): > 10000 nM
- Ki (Adenosine receptor A2a): 2580 nM
- Activity [2]: 6%
- Activity [4]: 12%
- inhibition at 10 µM [7]: 63%
- Activity [6]: 29%
- Ki (Adenosine receptor A1): > 1500 nM

Compound: COc1cccc(N2CCn3c(nc4c3c(=O)n(C)c(=O)n4C)C2)c1
- IC50 [1]: 1160 nM
- Ki (Adenosine receptor A2b): > 1000 nM
- Ki (Adenosine receptor A3): > 10000 nM
- Ki (Adenosine receptor A2a): 1010 nM
- Activity [2]: 16%
- inhibition at 10 µM [3]: 3%
- Activity [4]: 21%
- IC50 [5]: > 10000 nM
- Activity [6]: 32%
- Ki (Adenosine receptor A1): > 1500 nM

Compound: Cn1c(=O)c2c(nc3n2CCN(c2ccc(F)cc2)C3)n(C)c1=O
- IC50 [1]: 2230 nM
- Ki (Adenosine receptor A2b): > 1000 nM
- Ki (Adenosine receptor A3): > 10000 nM
- Ki (Adenosine receptor A2a): 2130 nM
- Activity [2]: 4%
- Activity [4]: 9%
- Activity [6]: 24%
- Ki (Adenosine receptor A1): > 1500 nM

Compound: Cn1c(=O)c2c(nc3n2CCN(CCOc2ccc(Cl)c(Cl)c2)C3)n(C)c1=O
- IC50 [1]: > 10000 nM
- Ki (Adenosine receptor A2b): > 1000 nM
- Ki (Adenosine receptor A3): > 10000 nM
- Ki (Adenosine receptor A2a): 2420 nM
- inhibition at 10 µM [3]: 14%
- Activity [4]: 21%
- IC50 [5]: > 10000 nM
- inhibition at 10 µM [7]: 27%
- Activity [6]: 36%
- Ki (Adenosine receptor A1): 1250 nM
